Measured values as given in PubChem BioAssay (NCI).
Several values for one entry are separate records, joined by “and”; a condition that tells them apart may be missing. Equal values may be shown once.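 Method: 48-hour compound exposure of cells in 96-well plates, five concentrations, linear interpolation of endpoints. The concentration for 50% growth inhibition is given as GI50. TGI: total growth inhibition.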

What was measured:
Assay in all cases: DTP human tumour cell line panel, 48 h
HCT-15 colon = test system: HCT-15 colon
CAKI-1 renal = test system: CAKI-1 renal
MDA-MB-435 = test system: MDA-MB-435
NCI-H522 lung = test system: NCI-H522 lung
UO-31 renal = test system: UO-31 renal
M14 melanoma = test system: M14 melanoma
OVCAR-8 ovarian = test system: OVCAR-8 ovarian
SK-MEL-2 melanoma = test system: SK-MEL-2 melanoma
A549 NSCLC = test system: A549 NSCLC
HOP-62 NSCLC = test system: HOP-62 NSCLC

Structure (SMILES)	GI50 (HCT-15 colon)	TGI (HCT-15 colon)	GI50 (CAKI-1 renal)	TGI (CAKI-1 renal)	GI50 (MDA-MB-435)	TGI (MDA-MB-435)	GI50 (NCI-H522 lung)	TGI (NCI-H522 lung)	GI50 (UO-31 renal)	TGI (UO-31 renal)	GI50 (M14 melanoma)	TGI (M14 melanoma)	GI50 (OVCAR-8 ovarian)	TGI (OVCAR-8 ovarian)	GI50 (SK-MEL-2 melanoma)	TGI (SK-MEL-2 melanoma)	GI50 (A549 NSCLC)	TGI (A549 NSCLC)	GI50 (HOP-62 NSCLC)	TGI (HOP-62 NSCLC)
O=C(c1ccco1)c1nc2cc(Cl)ccc2[n+]([O-])c1C(F)(F)F	32.7 µM	> 100 µM	28.3 µM	73.9 µM	> 100 µM	> 100 µM	45.1 µM	> 100 µM	> 100 µM	> 100 µM	59.1 µM	> 100 µM	57.1 µM	> 100 µM	> 100 µM	> 100 µM	63.3 µM	> 100 µM	76.7 µM	> 100 µM
COc1cc2c3c(n(CCCN)c(=O)c2cc1OC)-c1cc2c(cc1/C3=C\CCN)OCO2	27 µM	> 100 µM	23.6 µM	> 100 µM		> 36 µM	0.2 µM	3.08 µM	13.5 µM	45.7 µM	12.3 µM	35.7 µM	1.99 µM	13.1 µM	6.57 µM	14.6 µM	3.19 µM	> 30.3 µM	5.95 µM	36.7 µM
COc1ccc(-n2nnnc2-c2c[nH]c3c(F)cc(F)cc23)cc1	> 100 µM	> 100 µM	> 100 µM	> 100 µM	> 100 µM	> 100 µM	86 µM	> 100 µM	54 µM	> 100 µM	> 100 µM	> 100 µM	39.6 µM	> 100 µM	> 100 µM	> 100 µM	> 100 µM	> 100 µM	37.5 µM	> 100 µM
Cn1c(/C=C(\C#N)c2ccccc2)nc2c(N3CCOCC3)nc(Cl)nc21	0.233 µM	0.641 µM	0.824 µM	2.21 µM	1.3 µM	2.78 µM	0.74 µM	2.47 µM	0.553 µM	1.88 µM	0.844 µM	2.26 µM	1.04 µM	3.39 µM	1.62 µM	3.18 µM	1.53 µM	4.03 µM	1.58 µM	3.51 µM
NC(=S)N/N=C(\Cc1nc2ccc(Cl)cc2[nH]c1=O)C(=O)Nc1ccc(Cl)cc1		> 100 µM		> 100 µM		> 100 µM		> 100 µM		> 100 µM		> 100 µM		> 100 µM		> 100 µM		> 100 µM		> 100 µM
COc1c(OC)c(OC)c2c(c1OC)c(=O)c1ccccc1n2C		> 100 µM		> 100 µM		> 100 µM		> 100 µM		> 100 µM		> 100 µM		> 100 µM		> 100 µM		> 100 µM		> 100 µM
CC(=O)[C@@]1(O)CC[C@H]2[C@@H]3C[C@H](C)C4=CC(=O)CC[C@]4(C)[C@H]3[C@@H](O)C[C@@]21C		> 100 µM		> 100 µM		> 100 µM		> 100 µM		> 100 µM		> 100 µM		> 100 µM		> 100 µM		> 100 µM		> 100 µM
CC1(C)N=C(N)N=C(N)N1c1ccc(OCCCCOc2ccc(S(=O)(=O)F)cc2)c(Cl)c1	1.12 µM	> 100 µM	3.7 µM	> 47.2 µM	0.0604 µM	16.3 µM	0.16 µM	16.2 µM	24.4 µM	> 100 µM	0.116 µM	15.3 µM	0.348 µM	17.4 µM	2.89 µM	22.1 µM	0.0826 µM	14.8 µM	0.269 µM	12.9 µM
N[C@@H]1CCCC[C@H]1N.O=C([O-])C(=O)[O-].[Pt+4]	0.646 µM	> 64.9 µM	0.765 µM	39.3 µM	0.577 µM	18.6 µM	3.92 µM	32.3 µM	8.47 µM	43.6 µM	7.22 µM	45.1 µM	6 µM	> 100 µM	5.15 µM	52.9 µM	0.615 µM	> 84.1 µM	46.2 µM	> 100 µM
Cc1ccccc1N=Nc1ccc(NC(=O)c2ccnn2C)c(C)c1	68.4 µM	> 100 µM	55.4 µM	> 100 µM	54.9 µM	> 100 µM	30 µM	> 100 µM	11.2 µM	> 100 µM	32.4 µM	> 100 µM	98.5 µM	> 100 µM	28.6 µM	> 100 µM	73.9 µM	> 100 µM	29.4 µM	> 100 µM
Nc1ncnc2c1nc(Cl)n2C1OC2COP(=O)(O)OC2C1O (centres undefined)		> 300 µM		153 µM and > 100 µM		> 255 µM		> 300 µM		> 300 µM		> 300 µM		> 300 µM		> 300 µM		> 300 µM		163 µM and > 100 µM
